Tests used:
[1] = tested on: canine model; conditions: 2000 μg/d for 28 days, intrathecal; cited from earlier work
[2] = tested on: chronic spastic SCl rat model; experiment: BBB scoring system for motor function in spastic SCI rats; type: in vivo, Sprague Dawley rats
Protocol: (§1) Subjects—Twenty Sprague Dawley rats with severe spinal cord injury and spasticity, which were more than ten weeks from initial weight, drop injury. […] The rats were implanted using the 2 French Fogarty balloon catheter attached to a refillable 1 cc. Pumps (ESOX Minneapolis Minn.) placed surgically in the subcutaneously between the shoulder blades one week earlier that had been effectively delivering preservative free normal saline. The ESOX pump flowed at a rate of 60 μl per day. The pump initially contained saline solution and the animals were again tested several days after pump placement for spasticity. […] The pump has the advantage that the solution in the pump can be changed so that drugs can be evaluated. GABAmide was placed in the pumps and the animals were evaluated at the times specified below. […] Rats were also assessed for functional changes utilizing the BBB scoring system for motor function and for their ability to walk a series of balance beams without falling that started at 7.7 cm. and decreased in 1 cm increments to 1.7 cm. in diameter (the smallest a normal rat can easily and reliably cross). […] Differences over times were assessed via descriptive statistics, Friedman's analysis, Wilcoxon signed-rank, for nonparametric data (spasticity, BBB score and beam walking).

[3] = tested on: chronic spastic SCl rat model; experiment: Ability to walk a series of balance beams (7.7 cm to 1.7 cm) in spastic SCI rats; type: in vivo, Sprague Dawley rats; conditions: for beam walking, mean: 15 micrograms per day intrathecal
Protocol: Subjects—Twenty Sprague Dawley rats with severe spinal cord injury and spasticity, which were more than ten weeks from initial weight, drop injury. […] The rats were implanted using the 2 French Fogarty balloon catheter attached to a refillable 1 cc. Pumps (ESOX Minneapolis Minn.) placed surgically in the subcutaneously between the shoulder blades one week earlier that had been effectively delivering preservative free normal saline. The ESOX pump flowed at a rate of 60 μl per day. The pump initially contained saline solution and the animals were again tested several days after pump placement for spasticity. Design—Rats were randomized to a blinded three-arm study utilizing GABAmide, baclofen and placebo in a cross over design. The pump has the advantage that the solution in the pump can be changed so that drugs can be evaluated. GABAmide was placed in the pumps and the animals were evaluated at the times specified below. Main Outcome Measures—Rats were tested weekly for levels of spasticity: 4) spasms spontaneously occur over a four minute observation period 3) spasms with light touch of the foot 2) spasms with passive movement of the foot and leg by extending the leg 1) spasms with painful stimulation—extend leg and pinch foot 0) no spasms inducible This scale was adapted for use in animals from the Ashworth score (Albright et al., Intrathecal baclofen therapy for spasticity of cerebral origin: Patient selection guidelines 1997), which has been utilized so frequently in human trials and in the clinical management of intrathecal baclofen. Meythaler et al., Arch. Phys. Med. Rehabil. […] Rats were also assessed for functional changes utilizing the BBB scoring system for motor function and for their ability to walk a series of balance beams without falling that started at 7.7 cm. and decreased in 1 cm increments to 1.7 cm. in diameter (the smallest a normal rat can easily and reliably cross). […] Differences over times were assessed via descriptive statistics, Friedman's analysis, Wilcoxon signed-rank, for nonparametric data (spasticity, BBB score and beam walking).

[4] = tested on: chronic spastic SCl rat model; experiment: Spasticity score (scale adapted from the Ashworth score) in chronic spastic SCI rat model, intrathecal delivery by implantable pump; type: in vivo, Sprague Dawley rats; conditions: compared with baclofen
Protocol: (§2) A study on the use GABAmide was performed to compare its effectiveness to reduce spasticity and assess toxicity via intrathecal delivery in a chronic spastic SCl rat model utilizing an implantable refillable pump.
as §1, with “day.” for “day. The pump initially contained saline solution and the animals were again tested several days after pump placement for spasticity.”

[5] = Solubility in water; type: physicochemical
[6] = Stability in solution; type: physicochemical
Source text: In a preferred embodiment, the compound administered to a patient or subject is the gamma-aminobutyramide, a solubility product obtained by dissolving PROGABIDE in a solvent thereby generating gamma-aminobutyramide and an insoluble ketone. The insoluble ketone (4-chlorophenyl-5-fluoro-2-hydroxyphenylmethanone) is subsequently removed by filtration leaving the pure, stable gamma-aminobutyramide.

[7] = tested on: chronic spastic SCl rat model; experiment: Tolerability of intrathecal delivery in spastic SCI rats; type: in vivo
Protocol: as §2
as §1, with “day.” for “day. The pump initially contained saline solution and the animals were again tested several days after pump placement for spasticity.”

[8] = 5 micrograms per day intrathecal, throughout the study

SMILES | histopathology [1] | change in BBB score ([2]; 15 micrograms per day intrathecal, day five of treatment) | beam walking, mean ([3]; day five of treatment) [cm] | beam walking, mean ([3]; day three, baseline 5.2 cm, p=0.01 Friedman's) [cm] | accommodation to spasticity [4] | solubility in water [5] | change in BBB score [2, 8] | stability [6] | change in beam walking [3, 8] | tolerability [7]
NCC(CC(=O)O)c1ccc(Cl)cc1 (stereo not shown) [baclofen] | no deleterious histopathology | not significant | 6.0 | 2.7 |  |  |  |  |  | 
NCCCC(N)=O [GABAmide, gamma-aminobutyramide] |  |  |  |  | less accommodation to spasticity than baclofen | soluble in water | not statistically significant change | relatively stable for long periods of time | not statistically significant change | well tolerated

— US7354954B1, “Use of GABA agonists for treatment of spastic disorders, convulsions, and epilepsy” (priority 2000, dated 2008)
